How the values were obtained:
Assay type in all cases: in vivo
Diamondback moth = assay: Insecticidal activity against Diamondback moth, Airbrush spray on cabbage leaf discs; details: Plutella xylostella, foliar, 72 h, 3 days after the administration; for mortality at 0.156 µg/mL: 0.156 mg/L, read-out: Mortality rate (%, 3 days after the administration) 0.156 mg/L; for mortality at 0.156 µg/mL / mortality at 0.313 µg/mL / mortality at 10 µg/mL: Diamondback moth; for mortality at 0.313 µg/mL: 0.313 mg/L, read-out: Mortality rate (%, 3 days after the administration) 0.313 mg/L; for mortality at 1.25 µg/mL: 1.25 mg/L, 3rd-instar larvae, read-out: mortality rate against Diamondback moth; for mortality at 10 µg/mL: 10 mg/L, read-out: Mortality rate (%, 3 days after the administration) 10 mg/L
Protocol: (§1) After the compound to be determined was dissolved in a mixed solvent of acetone/methanol (1:1), it was diluted with water containing 0.1% (wt) Tween-80 to a desired concentration.
(§2) Mythimna separata, Diamondback moth, Chilo suppressalis, Spodoptera exigua, Myzus persicae, and Franklinella occidentalis were used as targets, and the activity was tested by an Airbrush spray method.
Determination method: cabbage leaves were formed into leaf discs having a diameter of 2 cm using a puncher, and the front and back of each leaf disc were sprayed under an Airbrush spray treatment pressure of 10 psi (approximate to 0.7 kg/cm^2) and with a spray volume of 0.5 mL. After drying in the shade, 10 3rd-instar larvae were inoculated for each treatment, and each treatment was repeated for 3 times. After the treatment, the leaf discs were placed into an observation chamber at 25° C. and with a relative humidity of 60% to 70%, and the number of living larvae was investigated 3 days after the administration of the compounds, and the mortality rates were calculated.

Chilo suppressalis = assay: Insecticidal activity against Chilo suppressalis, sprayed rice stems; details: 72 h, 0.625 mg/L, 3 days after the administration, 3rd-instar larvae, read-out: mortality rate against Chilo suppressalis
Protocol: as §1, §2
Determination method: 1) Preparation of rice seedlings: rice was cultured in a plastic small cup with a diameter of 4.5 cm and a height of 4 cm in a constant temperature room (the temperature was 26-28° C., the relative humidity was about 60-80%, and the illumination was 16hL:8hD), when the rice grown to a 4-5 leaf stage, robust and uniformly grown rice seedlings were selected for pharmaceutical treatment, and 3 replicates were set for each treatment. 2) Preparation of test insects: 3rd-instar larvae of Chilo suppressalis were continuously reared indoors. 3) Rice stems were sprayed and insects were introduced. A spray method was used to treat whole rice seedlings with uniform spray, and each treatment was 15 mL. Blank controls were treated firstly, and then the above operation was repeated in an order of experimental concentrations from low to high. After the spray treatment of the rice seedlings, they were placed in the shade to air-dry drug liquid, about 5 cm of the stem from a basal part of the stem was cut and fed to the test insects. A glass culture dish with a diameter of 90 mm was prepared, filter paper was placed on the bottom of the dish, then water was added to moisturize. About 5 rice stems were placed in each dish, 10 larvae were introduced, and the culture dish was closed with non-woven fabric and placed in the constant-temperature room for culture. 3 days after the administration, the number of residual live insects was investigated.

Mythimna separata = assay: Insecticidal activity against Mythimna separata, Airbrush spray on maize leaf pieces; details: 72 h, 0.05 mg/L, 3 days after the administration, 3rd-instar larvae, read-out: mortality rate against Mythimna separata
Protocol: as §1, §2
Determination method: maize leaves were cut into 2 cm leaf pieces, and the front and back of each leaf piece were sprayed under an Airbrush spray treatment pressure of 10 psi (approximate to 0.7 kg/cm^2) and with a spray volume of 0.5 mL. After drying in the shade, 10 3rd-instar larvae were inoculated for each treatment, and each treatment was repeated for 3 times. After the treatment, the leaf pieces were put into an observation chamber at 25° C. and with a relative humidity of 60% to 70%, and the number of living larvae was investigated 3 days after the administration of the compounds, and the mortality rates were calculated.

cat flea = assay: Insecticidal experiment on cat flea, thin film in culture dish; details: Ctenocephalides felis, 72 h, read-out: mortality rate, cat flea
Protocol: 4 mg of the compound to be determined was dissolved in 40 mL of acetone to obtain an acetone solution with a concentration of 100 mg/L. 400 μL of the drug solution was applied on the bottom and sides of a culture dish with an inner diameter of 5.3 cm, then after acetone was evaporated, a thin film of the compound of the present invention was made on the inner wall of the culture dish. The inner wall of the culture dish used was 40 cm^2, and the treatment dosage was 1 μg/cm^2. 10 adult cat fleas (mixed male and female) were put into the dish, and it was stored in a constant-temperature room at 25° C. after being covered. The number of dead insects after 72 h was checked and the mortality rate was calculated. The experiment was repeated for 3 times.

Spodoptera exigua = assay: Insecticidal activity against Spodoptera exigua, leaf disc dipping feeding method; details: foliar, 72 h, 0.625 mg/L, 3 days after the administration, read-out: mortality rate against Spodoptera exigua
Protocol: After the compound to be determined was dissolved in a mixed solvent of acetone/methanol (1:1), it was diluted with water containing 0.1% (wt) Tween-80 to a desired concentration. […]
Determination method: the activity was tested by using a leaf disc dipping feeding method. Leaf discs were dipped in a drug solution for 10 s, and placed in a culture dish after being air-dried, there were 4 discs in each dish, and a filter paper was placed in the culture dish for moisture retention. 10 test insects of Spodoptera exigua were introduced to each dish, with 3 replicates.
They were placed in a light incubator for culture at a temperature of 25° C. and an illumination of 14hL:10hD. On the 1st, 2nd, and 3rd day after the administration, the number of dead Spodoptera exigua was investigated and the mortality rate was calculated.

Myzus persicae = assay: Insecticidal activity against Myzus persicae, Airbrush spray on cabbage leaves; details: 50 mg/L, after 48 h, read-out: mortality rate against Myzus persicae
Protocol: as §1, §2
Determination method: a culture dish with a diameter of 6 cm was taken, the bottom of the dish was covered by a layer of filter paper, and an appropriate amount of tap water was added to moisturize the paper. Cabbage leaves with an appropriate size (the diameter was about 3 cm) and 15-30 aphids grown were cut from cabbage plants used to culture Myzus persicae, winged aphids and aphids on the front of the leave were removed, and it was placed in the culture dish while the back of the leave was upward. The pressure of airbrush spray treatment was 10 psi (about 0.7 kg/cm^2), the liquid spray volume was 0.5 mL, and there were 3 replicates for each treatment. After the treatment, the leave was put into an observation room for culture at 25° C. and a relative humidity of 60-70%. After 48 h, the number of live insects was investigated and the mortality rate was calculated.

[1] = system: Franklinella occidentalis; assay: Insecticidal activity against Franklinella occidentalis nymphs, sprayed bean leaves
Protocol: as §1, §2
Determination method: fresh bean leaves cultivated in a greenhouse were selected, a hand-held Airbrush sprayer was used to spray uniformly, each treatment was 1 mL, and after being air-dried naturally, the leaves were placed in a finger-shaped tube. Neat and healthy Franklinella occidentalis nymphs were introduced, there were 15 nymphs for each treatment, 3 replicates were set for the experiment, and water treatment was set as a blank control. After the treatment, the leaves were put into an indoor culture room for culture at 24° C., a relative humidity of 60-70%, and natural light. After 72 h, the number of live insects was investigated and the mortality rate was calculated.

Structure (SMILES): C#CCN(C(=O)c1ccccc1)c1cccc(C(=O)Nc2c(Br)cc(C(F)(C(F)(F)F)C(F)(F)F)cc2C(F)(F)F)c1F [Compound 31]
- mortality at 0.156 µg/mL (Diamondback moth): 100%
- mortality at 0.313 µg/mL (Diamondback moth): 100%
- mortality at 1.25 µg/mL (Diamondback moth): > 90%
- mortality at 10 µg/mL (Diamondback moth): 100%
- mortality at 0.625 µg/mL (Chilo suppressalis): > 90%
- mortality at 0.05 µg/mL (Mythimna separata): > 90%
- mortality at 1 µg/cm2 (cat flea): > 90%
- mortality at 0.625 µg/mL (Spodoptera exigua): > 90%
- mortality at 50 µg/mL (Myzus persicae): > 90%
- Mortality rate (%, 3 days after the administration) 10 mg/L [1]: 97.78%
- Mortality rate (%, 3 days after the administration) 100 mg/L [1]: 100%

Structure (SMILES): C#CCN(C(=O)c1ccc(F)cc1)c1cccc(C(=O)Nc2c(Br)cc(C(F)(C(F)(F)F)C(F)(F)F)cc2C(F)(F)F)c1F [Compound 35]
- mortality at 0.156 µg/mL (Diamondback moth): 100%
- mortality at 0.313 µg/mL (Diamondback moth): 100%
- mortality at 1.25 µg/mL (Diamondback moth): > 90%
- mortality at 10 µg/mL (Diamondback moth): 100%
- mortality at 0.625 µg/mL (Chilo suppressalis): > 90%
- mortality at 0.05 µg/mL (Mythimna separata): > 90%
- mortality at 1 µg/cm2 (cat flea): > 90%
- mortality at 0.625 µg/mL (Spodoptera exigua): > 90%
- mortality at 50 µg/mL (Myzus persicae): > 90%
- Mortality rate (%, 3 days after the administration) 10 mg/L [1]: 100%
- Mortality rate (%, 3 days after the administration) 100 mg/L [1]: 100%

Structure (SMILES): C#CCN(C(=O)c1ccc(F)cc1)c1cccc(C(=O)Nc2c(I)cc(C(F)(C(F)(F)F)C(F)(F)F)cc2C(F)(F)F)c1F [Compound 36]
- mortality at 0.156 µg/mL (Diamondback moth): 100%
- mortality at 0.313 µg/mL (Diamondback moth): 100%
- mortality at 1.25 µg/mL (Diamondback moth): > 90%
- mortality at 10 µg/mL (Diamondback moth): 100%
- mortality at 0.625 µg/mL (Chilo suppressalis): > 90%
- mortality at 0.05 µg/mL (Mythimna separata): > 90%
- mortality at 1 µg/cm2 (cat flea): > 90%
- mortality at 0.625 µg/mL (Spodoptera exigua): > 90%
- mortality at 50 µg/mL (Myzus persicae): > 90%
- Mortality rate (%, 3 days after the administration) 10 mg/L [1]: 95.56%
- Mortality rate (%, 3 days after the administration) 100 mg/L [1]: 100%

Structure (SMILES): C#CCN(C(=O)c1ccc(F)nc1)c1cccc(C(=O)Nc2c(Br)cc(C(F)(C(F)(F)F)C(F)(F)F)cc2C(F)(F)F)c1F [Compound 47]
- mortality at 0.156 µg/mL (Diamondback moth): 100%
- mortality at 0.313 µg/mL (Diamondback moth): 100%
- mortality at 1.25 µg/mL (Diamondback moth): > 90%
- mortality at 10 µg/mL (Diamondback moth): 100%
- mortality at 0.625 µg/mL (Chilo suppressalis): > 90%
- mortality at 0.05 µg/mL (Mythimna separata): > 90%
- mortality at 1 µg/cm2 (cat flea): > 90%
- mortality at 0.625 µg/mL (Spodoptera exigua): > 90%
- mortality at 50 µg/mL (Myzus persicae): > 90%
- Mortality rate (%, 3 days after the administration) 10 mg/L [1]: 100%
- Mortality rate (%, 3 days after the administration) 100 mg/L [1]: 100%

Structure (SMILES): C#CCN(C(=O)c1ccc(F)nc1)c1cccc(C(=O)Nc2c(I)cc(C(F)(C(F)(F)F)C(F)(F)F)cc2C(F)(F)F)c1F [Compound 48]
- mortality at 0.156 µg/mL (Diamondback moth): 100%
- mortality at 0.313 µg/mL (Diamondback moth): 100%
- mortality at 1.25 µg/mL (Diamondback moth): > 90%
- mortality at 10 µg/mL (Diamondback moth): 100%
- mortality at 0.625 µg/mL (Chilo suppressalis): > 90%
- mortality at 0.05 µg/mL (Mythimna separata): > 90%
- mortality at 1 µg/cm2 (cat flea): > 90%
- mortality at 0.625 µg/mL (Spodoptera exigua): > 90%
- mortality at 50 µg/mL (Myzus persicae): > 90%
- Mortality rate (%, 3 days after the administration) 10 mg/L [1]: 100%
- Mortality rate (%, 3 days after the administration) 100 mg/L [1]: 100%

Source: US20240199552A1, “AMIDE COMPOUND AND USE THEREOF” (Metisa Biotechnology Co., Ltd, priority 2021, published 2024)
